Test results: patent US8815925B2, “Use of combination preparations comprising antifungal agents” (priority 2006, dated 2014)

Experiments:
Candida vulvovaginitis = tested on: Candida vulvovaginitis
Procedure: The treatment was by topical administration of suitable pharmaceutical substance combinations on the skin, or on the mucosae of the genitourinary tract and of the oropharynx, respectively. […]
(§1) Therapy with an ointment combination of Clotrimazole/Diclofenac-Na
Single dose: 5 mg of Diclofenac-Na/20 mg of Clotrimazole
Dosage regimen: initially (3 days) 3×/day ointment strips of 2.5 cm locally applied in vulva and vagina, subsequently once per day, for 4 days.
patient, suffering from chronic-recurrent Candida vulvovaginitis for years (>10 recurrences/year), otherwise healthy, prior treatment both topical (Clotrimazole, Miconazole) and systemically (Fluconazole, several times, also long-term therapy and therapy of the partner).
Initial therapy: Clotrimazole/Diclofenac (25/25 mg) supp. for 2 days, subsequently
Clotrimazole/Diclofenac as ointment as described in Case 1, for 3 days. […]

[1] = tested on: diaper thrush (Candida mycosis)
Description: The treatment was by topical administration of suitable pharmaceutical substance combinations on the skin, or on the mucosae of the genitourinary tract and of the oropharynx, respectively.
as §1

[2] = tested on: chronic-recurrent vulvovaginitis; settings: Fluconazol 150 mg orally, long-term regimen; cited from earlier work

SMILES	response to local treatment (monotherapy) (Candida vulvovaginitis; Case 1, during pregnancy, before the combination therapy)	response to monotherapy (Candida vulvovaginitis; Case 2, 8 days of therapy, before the combination therapy)	improvement by conventional local therapy (summary) (Candida vulvovaginitis; first and third cases)	course of curing under monotherapy (summary) (Candida vulvovaginitis; second case, 8 days of intensive therapy)	clinical picture under monotherapy (summary) ([1]; first diaper thrush case)	healing under monotherapy (summary) ([1]; second (mild) diaper thrush case)	cases that become recurrent after discontinuation [2]
Clc1ccccc1C(c1ccccc1)(c1ccccc1)n1ccnc1 [Clotrimazole]	complete therapy resistance	low-grade improvement	no improvement	highly retarded	marked deterioration	healing after three days	–
OC(Cn1cncn1)(Cn1cncn1)c1ccc(F)cc1F [Fluconazol]	–	–	–	–	–	–	about 50%
